{
  "source": "patent US20230310356A1",
  "about": "“COMPOSITION FOR PREVENTING, AMELIORATING, OR TREATING BRAIN DAMAGE AND MILD COGNITIVE IMPAIRMENT COMPRISING GLUTAMINE AS EFFECTIVE COMPONENT” (INDUSTRY-ACADEMIC COOPERATION FOUNDATION GYEONGSANG …, priority 2020, published 2023)",
  "key": {"[1]": {"tested_on": "3×TG-AD female mouse (model of Alzheimer's disease)", "test": "ORT cognitive ability test in animal model of Alzheimer's disease with glutamine diet", "assay_type": "in vivo", "conditions": "6-weel old compared to the 2-weeks old", "protocol": "As an animal model for cognitive ability evaluation, a 7-weeks old 3×TG-AD female mouse (8 mice. model of Alzheimer's disease) and a C57BL/6 female mouse (10 mice, control) were selected. The animals of each type were divided into 2 groups, and each group was provided with regular animal feed (i.e., normal diet, ND) or glutamine feed (Gln). The glutamine diet group was allowed to consume the feed containing 150 mg glutamine/kg diet, from 2-months old stage to the end of test (i.e., 6 to 7-months old stage). Health state of the animal was checked by measuring, once a week, the bodyweight of the animal and food intake (FIG. 7A). Cognitive ability test of the mouse as an animal model established above was determined by ORT (object recognition test). The animal was habituated in a box for 2 days. On Day 3, it was allowed to explore two identical objects for 10 minutes. On Day 4, one of the two objects was replaced with a novel object, and then, the animal was allowed to explore further for 5 minutes (FIG. 7B). The time spent by animal for exploring after approaching within 1 cm from the periphery of both objects was measured. After carrying out the calculation using Formula (3) below, DI (discrimination index) was calculated and compared to each other. In the present invention, a different novel object was employed for carrying out each test. […]"}, "normal mouse": {"tested_on": "normal mouse", "test": "Cognitive ability of normal mouse after oral administration of glutamine (Y-maze, ORT, OLT)", "assay_type": "in vivo", "protocol": "To determine if there is also an effect of orally administered glutamine on improving the cognitive ability of a normal mouse, 2 hours later glutamine administration, any improvement in cognitive ability was examined. The cognitive ability was tested by using Y-maze for testing short-term memory and ORT and OLT (object location recognition test) for testing long-term memory. Y-maze: To a Y-shaped maze consisting of 3 arms that are spread at 120° angle from each other and designated as A, B, and C, respectively, a mouse was introduced. Then, the spontaneous alternation indicating an entrance into different arms, 3 times consecutively, was applied to the following Formula (4) and the calculation was made (FIG. 10A). Three consecutive spontaneous alternation=[(Number of consecutive entry into different arms)/(Total number of arm entries−2)]×100 Formula (4) ORT/OLT: ORT was carried out for 10 minutes as described above, and, 24 hours later, one of the objects was translocated to a new spot and the animal was allowed to explore again for 5 minutes (FIG. 10B)."}, "PSD-95 and synaptophysin": {"tested_on": "PSD-95 and synaptophysin", "test": "Synaptic puncta by co-localization of PSD-95 and synaptophysin after CIS and glutamine supplementation", "assay_type": "in vivo, mouse", "conditions": "infralimbic cortex and hippocampal CA1 region (FIGS. 5E and 6F)", "protocol": "Control (CTL) is a group which received normal diet (common diet with nutritional balance) without any stress, CTL+Gln group is a normal diet group supplemented with glutamine (150 mg/kg of feed) and without any stress, STR is a normal diet group under stress, and STR+Gln group is a normal diet group supplemented with glutamine (150 mg/kg of feed) under stress. The stress group (STR) was individually brought by force to a restrainer for 2 hours every day (i.e., between 2 PM and 4 PM) so that the animals are applied with chronic immobilization stress for 15 days. Twenty-four hours after applying the last stress, the mouse was anesthetized with avertin, and perfused with PBS (pH 7.4) and 4% formaldehyde. After that, the brain was removed, fixed, and cut to a thickness with 40 μm. It was then incubated overnight after the addition of each antibody, nNOS (sc-5302, 200 μg/ml, Santa Cruz, Dallas, TX, USA, 1:50), iNOS (sc-7271, 200 μg/ml, Santa Cruz, 1:20), p47phox (sc-17845, 200 μg/ml, Santa Cruz, 1:20), p67phox (15551-1-AP, 43 μg/150 μl, Proteintech, Rosemont, IL, USA, 1:100), PSD-95 (postsynaptic density-95) (ab12093, 1 mg/ml, Abcam, Cambridge, UK, 1: 200), and synaptophysin (ab14692, 0.65 mg/ml, Abcam, 1: 200). […]"}, "[2]": {"conditions": "oral glutamine, long-term memory, compared to the normal mouse"}},
  "data": [
    {"smiles": "NC(=O)CC[C@H](N)C(=O)O", "note": "[glutamine]", "values": [
      {"measurement": "impairment in cognitive ability (object recognition ability, ORT)", "setting": "[1]; 3×TG-AD glutamine diet group, 150 mg glutamine/kg diet", "value": "no significant impairment"},
      {"measurement": "decrease of DI value in ORT", "setting": "[1]; 3×TG-AD group with glutamine diet, average from each individual", "value": 0.1},
      {"measurement": "spontaneous alternation of Y-maze test", "setting": "normal mouse; 2 hours later glutamine oral administration, short-term memory", "value": "no difference"},
      {"measurement": "cognitive ability in OLT", "setting": "normal mouse; [2]", "value": "more enhanced cognitive ability"},
      {"measurement": "cognitive ability in ORT", "setting": "normal mouse; [2]", "value": "more enhanced cognitive ability"},
      {"measurement": "synaptic puncta (co-localization of PSD-95 and synaptophysin)", "setting": "PSD-95 and synaptophysin", "value": "significantly increased"}
    ]}
  ]
}
